Measurements as given in patent US7964647B2 (Mutual Pharmaceutical Company, Inc., priority 2007, dated 2011).
Read-outs that look alike come from different tables or passages of the source.

Key:
[1] = Pharmacokinetic study of standard-dose acute gout regimen 4.8 mg over 6 hours (Example 6); conditions: for Cmax / Tmax / half-life: human, in vivo, 4.8 mg
Procedure: This study was a single center, randomized, double-blind, double-dummy pharmacokinetic and exploratory ECG safety study.
Those randomized to moxifloxacin received 1×400 mg tablet.

clinical = conditions: human, in vivo, 0.6 mg; for AUC: AUC0-τ, 0.6 mg b.i.d. x 10 days, after last dose (Day 25), healthy adults, N = 13
Procedure: Subjects received a light breakfast served 60 minutes following dose administration in the morning and the evening dose was administered 90 minutes after an evening meal on Days 15 through 24 only. […] Study periods were separated by a 14-day washout. Following the single dose and the last dose of the multiple dose regimen (beginning on the mornings of Day 1 and Day 25, respectively), blood samples were collected (6 mL each) from each subject within 1 hour prior to dosing and after dose administration at study hours 0.5, 1, 1.5, 2, 3, 4, 6, 8, 10, 12, and 24 (while confined) and 36, 48, 72, and 96 (on an outpatient basis).

[2] = standard-dose regimen 4.8 mg over 6 hours, healthy adults, N = 15
[3] = standard-dose regimen 4.8 mg over 6 hours, time after the initial dose, healthy adults, N = 15
[4] = low-dose regimen 1.8 mg (2 x 0.6 mg, then 0.6 mg 1 hour later), fasting healthy adults, N = 13
[5] = low-dose regimen 1.8 mg, healthy adults, N = 13
[6] = low-dose regimen 1.8 mg, time after the initial dose, healthy adults, N = 13

COc1cc2c(c(OC)c1OC)-c1ccc(OC)c(=O)cc1[C@@H](NC(C)=O)CC2 [Colchicine, (−)-N-[(7S,12aS)-1,2,3,10-tetramethoxy-9-oxo-5,6,7,9-tetrahydrobenzo[a]heptalen-7-yl]-acetamide]
Cmax ([1]; MEAN, standard-dose regimen 4.8 mg over 6 hours, healthy adults, N = 15): 6.8 ng/mL
Cmax ([1]; MEDIAN, standard-dose regimen 4.8 mg over 6 hours, healthy adults, N = 15): 6.69 ng/mL
Tmax ([1]; MEAN, standard-dose regimen 4.8 mg over 6 hours, time after the initial dose, healthy adults, N = 15): ~4.5 h
Tmax ([1]; MEDIAN, standard-dose regimen 4.8 mg over 6 hours, time after the initial dose, healthy adults, N = 15): 3.12 h
half-life ([1]; t1/2, MEAN, standard-dose regimen 4.8 mg over 6 hours, healthy adults, N = 15): 31.4 h
half-life ([1]; t1/2, MEDIAN, standard-dose regimen 4.8 mg over 6 hours, healthy adults, N = 15): 32.8 h
CL/F, MAX [1, 2]: 78287.41 mL/h
CL/F, MEAN [1, 2]: 43168.87 mL/h
CL/F, MEDIAN [1, 2]: 37954.71 mL/h
CL/F, MIN [1, 2]: 31386.01 mL/h
Cmax, MAX [1, 2]: 8.60 ng/mL
Cmax, MEAN [1, 2]: 6.84 ng/mL
Cmax, MIN [1, 2]: 4.95 ng/mL
Kel, MAX [1, 2]: 0.0461 h⁻¹
Kel, MEAN [1, 2]: 0.0242 h⁻¹
Kel, MEDIAN [1, 2]: 0.0212 h⁻¹
Kel, MIN [1, 2]: 0.0147 h⁻¹
Total AUC0-t, MAX [1, 2]: 138.24 ng·h/mL
Total AUC0-t, MEAN [1, 2]: 104.95 ng·h/mL
Total AUC0-t, MEDIAN [1, 2]: 113.12 ng·h/mL
Total AUC0-t, MIN [1, 2]: 53.74 ng·h/mL
Total AUC∞, MAX [1, 2]: 152.93 ng·h/mL
Total AUC∞, MEAN [1, 2]: 118.20 ng·h/mL
Total AUC∞, MEDIAN [1, 2]: 126.47 ng·h/mL
Total AUC∞, MIN [1, 2]: 61.31 ng·h/mL
Varea/F, MAX [1, 2]: 2639.21 L
Varea/F, MEAN [1, 2]: 1876.09 L
Varea/F, MEDIAN [1, 2]: 1902.14 L
Varea/F, MIN [1, 2]: 805.92 L
t1/2, MAX [1, 2]: 47.22 h
t1/2, MIN [1, 2]: 15.03 h
Tmax, MAX [1, 3]: 7.50 h
Tmax, MEAN [1, 3]: 4.47 h
Subjects with a secondary peak within 6 hours ([1]; standard-dose regimen 4.8 mg, 13 of 15 subjects): 87%
Cmax, MAX [4]: 11.37 ng/mL
Cmax, MIN [4]: 3.16 ng/mL
Maximum colchicine concentration (low-dose regimen 1.8 mg, healthy adults): 6.2 ng/mL
CL/F, MAX [5]: 52676.24 mL/h
CL/F, MEAN [5]: 36950.93 mL/h
CL/F, MEDIAN [5]: 35444.40 mL/h
CL/F, MIN [5]: 24295.73 mL/h
Kel, MAX [5]: 0.0502 h⁻¹
Kel, MEAN [5]: 0.0326 h⁻¹
Kel, MEDIAN [5]: 0.0322 h⁻¹
Kel, MIN [5]: 0.0141 h⁻¹
Total AUC0-t, MAX [5]: 58.93199 ng·h/mL
Total AUC0-t, MEAN [5]: 43.78755 ng·h/mL
Total AUC0-t, MEDIAN [5]: 43.94215 ng·h/mL
Total AUC0-t, MIN [5]: 28.82145 ng·h/mL
Total AUC∞, MAX [5]: 74.08708 ng·h/mL
Total AUC∞, MEAN [5]: 52.07006 ng·h/mL
Total AUC∞, MEDIAN [5]: 50.78377 ng·h/mL
Total AUC∞, MIN [5]: 34.171 ng·h/mL
Varea/F, MAX [5]: 1724.36 L
Varea/F, MEAN [5]: 1188.72 L
Varea/F, MEDIAN [5]: 1149.35 L
Varea/F, MIN [5]: 774.19 L
t1/2, MAX [5]: 49.20 h
t1/2, MEAN [5]: 23.63 h
t1/2, MIN [5]: 13.80 h
Tmax, MAX [6]: 2.50 h
Tmax, MIN [6]: 1.00 h
Subjects with a secondary peak within 6 hours after the first dose (low-dose regimen 1.8 mg, 10 of 13 subjects): 77%
Tmax (clinical): 1 h
AUC (clinical; MEAN): 29.1 ng·h/mL
AUC (clinical; MEDIAN): 28.5 ng·h/mL
Cmax (clinical; po): 2.71 ng/mL
half-life (clinical; po): ~5 h
